The structures appear in SMILES notation.

The test system of this assay is DOCA Na hypertensive rat. The assay is described as follows: Antihypertensive activity, subacute oral dosing in the DOCA Na rat (Example 1, Table I). The assay is classed as in vivo. The procedure:
A test was conducted for antihypertensive activity in the DOCA Na rat. DOCA rats weighing 170 to 210 grams are used in the test. DOCA Na hypertension is induced by unilateral nephrectomy followed by subcutaneous implantation of a 25 mg. desoxycorticosterone (DOCA) pellet. Animals are placed in individual cages receiving 0.9% sodium chloride solution to drink and rat chow diet ad libitum. Two weeks are allowed to elapse from the time of surgery for development of hypertension, i.e., systolic blood pressure of at least 150 mmHg.
Systolic blood pressure and heart rate are measured indirectly from the tail pressure pulse of unanesthetized rats, using a pneumatic pulse transducer. Control readings are taken prior to drug and post drug readings are taken at 1, 3, 6 and 24 hours.
The experimental results are represented as absolute values. Drug-related alterations in systolic blood pressure are expressed as percentage change by comparing control absolute values with post drug absolute values. Compounds are considered active when about a 15% or greater reduction in blood pressure is obtained. However, the reduction in blood pressure must show mathematical significance ([…]).
A derivative of the polyether ionophore, lasalocid, i.e., the bromo derivative of lasalocid, was tested in the above screen. The compound was orally administered for a five-day period by intubation and thereafter dosing was discontinued but blood pressure monitoring was continued. The following table illustrates the results obtained utilizing bromolasalocid as the test drug.

For the molecule `CC[C@@H](C(=O)[C@@H](C)[C@@H](O)[C@H](C)CCc1c(Br)cc(C)c(O)c1C(=O)O)[C@H]1O[C@](CC)([C@H]2CC[C@](O)(CC)[C@H](C)O2)C[C@@H]1C` [bromolasalocid], the “Average Systolic Blood Pressure Per Group” value is, setting by setting: (5 mg/kg per day oral for 5 days, Day 2 am, pre-drug 209) 206 mmHg; (5 mg/kg per day oral for 5 days, Day 2 pm, pre-drug 209) 194 mmHg; (5 mg/kg per day oral for 5 days, Day 3 pm, pre-drug 209) 191 mmHg; (5 mg/kg per day oral for 5 days, Day 4 am, pre-drug 209) 206 mmHg; (5 mg/kg per day oral for 5 days, Day 5 am, pre-drug 209) 197 mmHg; (5 mg/kg per day oral for 5 days, Day 5 pm, pre-drug 209) 196 mmHg. In addition, the “Average Systolic Blood Pressure Per Group” value reads like this: (10 mg/kg per day oral for 5 days, Day 1 pm, pre-drug 217, p<.05) 192 mmHg; (10 mg/kg per day oral for 5 days, Day 2 am, pre-drug 217, p<.05) 181 mmHg; (10 mg/kg per day oral for 5 days, Day 2 pm, pre-drug 217, p<.05) 166 mmHg; (10 mg/kg per day oral for 5 days, Day 3 am, pre-drug 217, p<.05) 171 mmHg; (10 mg/kg per day oral for 5 days, Day 3 pm, pre-drug 217, p<.05) 163 mmHg; (10 mg/kg per day oral for 5 days, Day 4 am, pre-drug 217, p<.05) 173 mmHg. The “Average Systolic Blood Pressure Per Group” value (10 mg/kg per day oral for 5 days, Day 4 pm, pre-drug 217, p<.05) is recorded as 157 mmHg and the “Average Systolic Blood Pressure Per Group” value (10 mg/kg per day oral for 5 days, Day 5 pm, pre-drug 217, p<.05) was found to be 166 mmHg. Further, for the setting “after oral dosing for the first five consecutive days”, the “Period for which blood pressure remained below control after drug dosing” value was 10 days.

The values are drawn from patent publication US4161520A, “Method of treating hypertension” (priority 1976, dated 1979).
